We go through 1 substance from patent publication US12336536B2, “Method for controlling herbicide resistant or tolerant weeds” (BASF Agro B.V., priority 2015, dated 2025).

The test system of test [1] is LOLRI. Description: Greenhouse test, solo and combination, post-emergence, 20 DAT. It is filed as in vivo, Lolium rigidum. On the procedure: (§1) The test plants have been seeded, separately for each species, in plastic containers in sandy loamy soil containing 5% of organic matter.
(§2) For the post-emergence treatment, the plants were first grown to the 2 leaf station (GS 12) and applied at GS 12-19 depending on the species. The herbicidal compositions were suspended or emulsified in water as distribution medium and sprayed using finely distributing nozzles.
(§3) The plants have been cultivated due to their individual requirements at 10-25° C. and 20-35° C. The plants were irrigated due to their necessity.
(§4) The racemic mixture (±)-2-exo-(2-Methylbenzyloxy)-1-methyl-4-isopropyl-7-oxabicyclo[2.2.1]heptane was used as herbicide A and formulated as emulsifiable concentrate having an active ingredient concentration of 750 g/l.
(§5) Cyhalofop-butyl (herbicide B.5) was used as an emulsifiable concentrate (EC) formulation having an active ingredient concentration of 200 g/l.
(§6) Metsulfuron-methyl (herbicide B.53) was used as a water soluble granule (SG) formulation having an active ingredient concentration of 20%.
(§7) Bispyribac-sodium (herbicide B.23) was used as a soluble concentrate (SL) formulation having an active ingredient concentration of 408 g/l.
(§8) Quizalofop-P-ethyl (herbicide B.217) was used as a suspension concentrate (SC) formulation having an active ingredient concentration of 106 g/l.
(§9) In the following experiments, the herbicidal activity for the individual herbicide compounds (solo and mixture applications) was assessed 20 days after treatment (DAT).
(§10) The evaluation for the damage on undesired weeds caused by the chemical compositions was carried out using a scale from 0 to 100%, compared to the untreated control plants. Here, 0 means no damage and 100 means complete destruction of the plants.
(§11) The plants used in the greenhouse experiments belonged to the following species:
(§12) E=X+Y−(X·Y/100) • where X=effect in percent using herbicide A at an application rate a; • Y=effect in percent using herbicide B at application rate b; • E=expected effect (in %) of herbicide A+herbicide B at application rates a+b.
(§13) The value E corresponds to the effect (plant damage or injury) which is to be expected if the activity of the individual compounds is additive. If the observed effect is higher than the value E calculated according to the Colby equation, a synergistic effect is present.
(§14) Tables 3 to 6 below relate the herbicidal activity, in greenhouse trials, of the individual actives and the combination applied at different rates and ratios, in post-emergence application at 20 days after treatment (DAT).

Test [2] relates to BROST. The description is as above. It is filed as in vivo, Bromus sterilis. As for the experimental part: as §1, §2, §3, §4, §5, §6, §7, §8, §9, §10, §11, §12, §13, §14

On to “(±)-2-exo-(2-Methylbenzyloxy)-1-methyl-4-isopropyl-7-oxabicyclo[2.2.1]heptane [Herbicide A]”, for which the Herbicidal activity is given as 15% in test [1] (solo application 62.5 g ai/ha); 30% in test [1] (solo application 125 g ai/ha); 50% in test [1] (solo application 250 g ai/ha); 0% in test [2] (solo application 62.5 g ai/ha); 0% in test [2] (solo application 125 g ai/ha); 15% in test [2] (solo application 250 g ai/ha). Besides, the Herbicidal activity in test [2] (solo application 500 g ai/ha) stood at 25%.
